{
  "source": "patent US9901637B2",
  "about": "“Vitamin D3 and analogs thereof for treating alopecia” (priority 2009, dated 2018)",
  "key": {"[1]": {"tested_on": "chemotherapy-induced alopecia (CIA)", "conditions": "neonatal rats, i.p. chemotherapy, recorded 10 days after last dose", "method": "Specifically, Long Evans and Sprague Dawley rats with pups were purchased from Harlan Laboratories, Inc. They were housed and fed according to applicable animal handling rules and regulations. Pups were allowed to acclimate for 48 hours prior to the start of experiments. […] Rats were isolated from their littermates and mother for 6-hour periods of time. Subsequently, the treated area was cleaned with soap and water and pups were returned to their litters. On day 13, rats either received etoposide (1.5 mg/kg daily for 3 days) or cyclophosphamide (CTX) (37.5 mg/kg once) or combination cyclophosphamide (35 mg/kg once) and doxorubicin (2.5 mg/kg daily for 3 days). All chemotherapies were purchased from Sigma and were given intraperitoneally (i.p.) in a total volume of 0.1 mL. Alopecia was recorded 10 days after the last dose of chemotherapy."}, "MIAC51": {"tested_on": "MIAC51", "assay": "Survival (cure) rate of chloroleukemic rats after two rounds of chemotherapy", "type": "in vivo, Long Evans Rats", "conditions": "rats treated with Cyclophosphamide (CTX), after Two Rounds of Chemotherapy", "method": "Animals were then randomized in four groups. All rats received MIAC51 as described below.\nOn day 5 after birth all rats received 1×105 MIAC51 intraperitoneally in 0.1 ml of serum free (SF) RPMI. MIAC51 were cultured in RPMI 1640 supplemented with L-glutamine and 10% fetal bovine serum at […] in a 5% CO2, 100% humidity incubator. Cells were grown to 50% confluency (1.5×106 ml) collected in 50 ml conical tubes, centrifuged at 600 g for 10 minutes at room temperature and resuspended in SF-RPMI at a concentration of 1×10^6/ml prior to injection."}, "[2]": {"tested_on": "chemotherapy-induced alopecia (CIA)", "assay": "Alopecia in chloroleukemic rats receiving multi-course chemotherapy, topical calcitriol", "conditions": "for Extent of Alopecia: number of rats with grade 4+: rats treated with Cyclophosphamide (CTX), 4+=75-100% alopecia", "text": "Long Evans Rats (Harlan Laboratories, Inc) were 3 days old upon arrival. The weight of the animals was obtained upon arrival and every day until the conclusion of the experiments using an electronic scale (American Scientific Products TL 410s). Rats were housed for two days prior to the beginning of experiments. Animals were then randomized in four groups.\nTreatments were started on day 6 after birth. […] Each application entailed rubbing an area of 2 cm^2 for 10 seconds with right index finger covered with a nitrile exam glove. After the completion of the treatments, each rat was individually separated for 6 hours. Subsequently each rat's head and back was washed with mild hand soap (Soft CIDE-EC from VWR International) and distilled water. Pups where then placed back with their mothers and taken back to the animal rooms. For the second anagen cycle, adult rats were placed back in their cages with their littermates and taken back to the animal rooms.\nOn day 23 after birth, a blood sample was taken from all rats and differentials were performed. Rats with leukemia were sacrificed while rats without leukemia were used for further experiments. A second differential was performed on day 31, and leukemic animals were sacrificed.\nVials of 1 mL were subdivided and kept in the refrigerator at 4° C. […] Unused preparations were disposed of.\nFor the second course of chemotherapy, rats received 20 mg/kg ADM on days 47 to 49 as described above."}},
  "data": [
    {"compound": "O=P1(N(CCCl)CCCl)NCCCO1", "note": "(centres unmarked) [CTX, cyclophosphamide]", "values": [
      {"measurement": "alopecia in rats receiving chemotherapy without calcitriol", "setting": "[1]", "result": "totally alopecic"},
      {"measurement": "Survival Rate, % cured", "setting": "MIAC51", "result": 20, "unit": "%"},
      {"measurement": "extent of alopecia (grade) in all rats receiving chemotherapy alone", "setting": "[2]; chloroleukemic Long Evans rats, after the first round of chemotherapy", "result": "+4"},
      {"measurement": "Extent of Alopecia: number of rats with grade 4+", "setting": "[2]; after First Round of Chemotherapy", "result": 40},
      {"measurement": "Extent of Alopecia: number of rats with grade 4+", "setting": "[2]; after Second Round of Chemotherapy", "result": 8}
    ]}
  ]
}
